Like-named read-outs stand apart in the source and are kept apart here. Positions of bridges follow the written chain, without caps; N, C: chain ends. Non-standard residues stand in square brackets, D forms with d. Residues, ends and D or L forms follow the SMILES beside them. Arg(Me2s) = CN=C(NC)NCCC[C@H](N)C(=O)O
Assays:
Assay in all cases: cell-based
hNav1.7 = hNav1.7 (Homo sapiens, UniProt Q15858); format: cell-based; settings: IonWorks Quattro, read-out: IWQ Use Nav1.7
hNav1.5 = hNav1.5 (Homo sapiens, UniProt Q14524); settings: IonWorks Quattro, read-out: IWQ Use Nav1.5
hNav1.3 = hNav1.3 (Homo sapiens, UniProt Q9NY46); settings: IonWorks Quattro, read-out: IWQ Use Nav1.3
[1] = clamped to −110 mV, depolarized to −10 mV, 5 min after compound, n=2

hNav1.7, sequence (Q15858 whole entry, looked up): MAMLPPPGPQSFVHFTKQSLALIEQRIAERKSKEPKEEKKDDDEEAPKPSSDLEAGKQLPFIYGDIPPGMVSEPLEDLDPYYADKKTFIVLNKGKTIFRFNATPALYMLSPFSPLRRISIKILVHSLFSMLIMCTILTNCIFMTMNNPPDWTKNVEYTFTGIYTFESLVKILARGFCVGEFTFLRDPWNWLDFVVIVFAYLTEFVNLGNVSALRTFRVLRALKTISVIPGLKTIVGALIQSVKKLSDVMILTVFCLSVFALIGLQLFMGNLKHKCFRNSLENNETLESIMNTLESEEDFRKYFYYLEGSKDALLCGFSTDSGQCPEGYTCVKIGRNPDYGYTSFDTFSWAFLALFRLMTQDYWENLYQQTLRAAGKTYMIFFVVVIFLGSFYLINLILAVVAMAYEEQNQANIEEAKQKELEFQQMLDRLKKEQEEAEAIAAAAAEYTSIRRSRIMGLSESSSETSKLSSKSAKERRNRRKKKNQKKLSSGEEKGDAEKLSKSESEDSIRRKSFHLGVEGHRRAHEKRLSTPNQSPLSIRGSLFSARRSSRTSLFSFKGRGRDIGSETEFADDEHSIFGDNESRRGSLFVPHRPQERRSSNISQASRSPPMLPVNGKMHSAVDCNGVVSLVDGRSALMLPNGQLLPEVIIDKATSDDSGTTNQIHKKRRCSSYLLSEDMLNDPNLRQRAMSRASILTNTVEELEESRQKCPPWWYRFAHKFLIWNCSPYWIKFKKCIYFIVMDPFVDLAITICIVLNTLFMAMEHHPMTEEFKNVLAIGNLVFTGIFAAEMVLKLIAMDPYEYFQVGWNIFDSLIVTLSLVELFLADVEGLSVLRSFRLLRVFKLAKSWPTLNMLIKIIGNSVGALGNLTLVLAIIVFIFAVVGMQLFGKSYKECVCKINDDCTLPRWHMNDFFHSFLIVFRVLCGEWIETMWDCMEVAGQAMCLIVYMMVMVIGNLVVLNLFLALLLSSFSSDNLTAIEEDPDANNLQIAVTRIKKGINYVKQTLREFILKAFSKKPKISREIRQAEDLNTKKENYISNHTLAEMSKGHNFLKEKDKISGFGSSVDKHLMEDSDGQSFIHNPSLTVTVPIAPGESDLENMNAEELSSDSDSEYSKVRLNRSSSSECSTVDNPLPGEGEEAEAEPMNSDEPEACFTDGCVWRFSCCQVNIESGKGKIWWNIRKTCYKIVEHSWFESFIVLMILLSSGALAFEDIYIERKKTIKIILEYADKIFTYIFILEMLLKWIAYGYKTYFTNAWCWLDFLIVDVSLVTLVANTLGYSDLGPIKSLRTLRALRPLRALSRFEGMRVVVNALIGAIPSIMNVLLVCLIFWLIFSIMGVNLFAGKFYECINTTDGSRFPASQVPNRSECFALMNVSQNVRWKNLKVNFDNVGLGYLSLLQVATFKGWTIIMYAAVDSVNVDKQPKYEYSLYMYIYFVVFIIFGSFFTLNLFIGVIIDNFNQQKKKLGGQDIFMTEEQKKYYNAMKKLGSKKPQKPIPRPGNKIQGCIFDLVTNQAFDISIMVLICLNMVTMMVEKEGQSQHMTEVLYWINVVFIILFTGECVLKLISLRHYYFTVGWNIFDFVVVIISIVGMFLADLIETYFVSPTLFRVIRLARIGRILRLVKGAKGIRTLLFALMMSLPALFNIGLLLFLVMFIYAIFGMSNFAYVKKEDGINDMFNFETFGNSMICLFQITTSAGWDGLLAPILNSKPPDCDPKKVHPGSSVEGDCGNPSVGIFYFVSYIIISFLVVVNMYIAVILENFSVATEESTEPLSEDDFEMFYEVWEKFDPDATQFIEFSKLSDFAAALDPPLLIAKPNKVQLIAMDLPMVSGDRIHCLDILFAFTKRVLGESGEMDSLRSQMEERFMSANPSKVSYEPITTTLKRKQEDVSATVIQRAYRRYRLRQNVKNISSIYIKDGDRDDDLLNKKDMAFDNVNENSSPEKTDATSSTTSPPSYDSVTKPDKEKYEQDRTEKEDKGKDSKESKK
hNav1.3, sequence (Q9NY46 whole entry, looked up): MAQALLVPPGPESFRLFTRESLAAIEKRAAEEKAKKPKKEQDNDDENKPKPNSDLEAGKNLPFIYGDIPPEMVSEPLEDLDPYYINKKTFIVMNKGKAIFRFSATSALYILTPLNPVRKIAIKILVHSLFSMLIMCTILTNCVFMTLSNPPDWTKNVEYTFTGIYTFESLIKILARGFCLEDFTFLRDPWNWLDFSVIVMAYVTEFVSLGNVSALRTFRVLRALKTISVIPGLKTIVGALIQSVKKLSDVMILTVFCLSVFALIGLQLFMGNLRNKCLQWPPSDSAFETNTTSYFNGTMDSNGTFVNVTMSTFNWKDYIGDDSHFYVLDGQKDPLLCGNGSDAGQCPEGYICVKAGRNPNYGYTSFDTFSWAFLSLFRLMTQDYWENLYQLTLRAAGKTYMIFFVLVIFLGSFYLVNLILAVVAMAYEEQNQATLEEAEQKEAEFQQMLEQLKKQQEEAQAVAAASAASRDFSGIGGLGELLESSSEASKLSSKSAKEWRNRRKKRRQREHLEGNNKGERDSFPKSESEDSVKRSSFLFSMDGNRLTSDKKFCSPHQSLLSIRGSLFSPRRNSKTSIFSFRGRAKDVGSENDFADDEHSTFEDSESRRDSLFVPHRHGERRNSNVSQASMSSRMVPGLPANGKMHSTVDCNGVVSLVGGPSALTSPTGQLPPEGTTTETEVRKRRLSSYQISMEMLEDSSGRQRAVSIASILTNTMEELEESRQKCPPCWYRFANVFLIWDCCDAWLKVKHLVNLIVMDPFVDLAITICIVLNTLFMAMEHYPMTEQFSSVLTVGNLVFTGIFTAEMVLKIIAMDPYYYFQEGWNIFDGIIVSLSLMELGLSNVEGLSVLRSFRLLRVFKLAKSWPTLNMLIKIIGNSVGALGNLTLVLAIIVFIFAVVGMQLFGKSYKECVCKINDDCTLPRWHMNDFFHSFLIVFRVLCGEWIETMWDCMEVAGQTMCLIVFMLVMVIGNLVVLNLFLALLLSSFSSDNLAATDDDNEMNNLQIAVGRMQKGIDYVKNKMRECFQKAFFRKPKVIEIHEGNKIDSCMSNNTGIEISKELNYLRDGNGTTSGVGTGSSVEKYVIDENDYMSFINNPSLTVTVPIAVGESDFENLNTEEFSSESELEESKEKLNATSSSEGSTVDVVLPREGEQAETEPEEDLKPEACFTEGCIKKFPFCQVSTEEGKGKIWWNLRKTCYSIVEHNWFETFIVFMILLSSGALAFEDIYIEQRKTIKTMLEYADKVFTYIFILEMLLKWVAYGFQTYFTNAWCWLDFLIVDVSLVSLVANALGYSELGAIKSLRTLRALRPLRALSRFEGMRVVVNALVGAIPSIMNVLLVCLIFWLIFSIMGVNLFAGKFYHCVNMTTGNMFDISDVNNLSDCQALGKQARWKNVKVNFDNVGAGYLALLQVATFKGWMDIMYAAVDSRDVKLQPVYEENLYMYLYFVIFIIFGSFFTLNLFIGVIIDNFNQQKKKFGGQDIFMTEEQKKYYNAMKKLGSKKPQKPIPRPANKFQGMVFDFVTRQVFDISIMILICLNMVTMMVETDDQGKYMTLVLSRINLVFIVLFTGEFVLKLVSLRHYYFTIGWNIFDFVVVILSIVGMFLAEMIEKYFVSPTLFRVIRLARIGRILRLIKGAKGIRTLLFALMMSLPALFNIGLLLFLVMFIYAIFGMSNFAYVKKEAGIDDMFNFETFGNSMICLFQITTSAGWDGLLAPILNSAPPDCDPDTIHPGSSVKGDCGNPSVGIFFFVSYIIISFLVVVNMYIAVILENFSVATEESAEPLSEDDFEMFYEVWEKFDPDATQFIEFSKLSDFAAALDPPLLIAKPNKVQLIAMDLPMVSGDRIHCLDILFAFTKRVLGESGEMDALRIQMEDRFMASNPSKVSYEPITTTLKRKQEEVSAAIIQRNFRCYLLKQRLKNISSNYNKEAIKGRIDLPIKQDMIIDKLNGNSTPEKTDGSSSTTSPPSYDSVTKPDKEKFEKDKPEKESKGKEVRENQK

## CC[C@H](C)[C@@H]1NC(=O)[C@@H]2CSSC[C@@H]3NC(=O)[C@H](C(C)C)NC(=O)[C@H](CC(C)C)NC(=O)[C@H](CC(N)=O)NC(=O)[C@@H]4CCCN4C(=O)[C@H](CCCNC(=N)N)NC(=O)[C@H](CSSC[C@H](NC(=O)[C@@H](N)CC(=O)O)C(=O)N[C@@H](CCCCN)C(=O)NCC(=O)N[C@@H](Cc4ccccc4)C(=O)N[C@@H](CCSC)C(=O)N[C@@H](CCCNC(=N)N)C(=O)N[C@@H](CCCCN)C(=O)N2)NC(=O)[C@H](CSSC[C@@H](C(=O)N[C@@H](CCCCN)C(=O)N[C@@H](Cc2ccc(O)cc2)C(=O)N[C@H](C(=O)N[C@@H](Cc2ccccc2)C(N)=O)C(C)C)NC(=O)[C@H](Cc2c[nH]c4ccccc24)NC(=O)[C@H](CCCCN)NC(=O)[C@H](Cc2cnc[nH]2)NC(=O)[C@H]([C@@H](C)O)NC(=O)[C@H](CCCNC(=N)N)NC(=O)[C@H](CO)NC3=O)NC(=O)[C@H](CCCCN)NC(=O)[C@H](CC(=O)O)NC(=O)[C@H](CC(N)=O)NC(=O)[C@H](CC(=O)O)NC(=O)[C@@H]2CCCN2C1=O [SEQ ID NO: 38] (H-DCKGFMRKCIPDNDKCCRPNLVCSRTHKWCKYVF-NH2; disulfide 2-17, 9-23, 16-30)
hNav1.7; [1]
  IC50: 80 nM
hNav1.5; [1]
  IC50: 6950 nM
hNav1.3; [1]
  IC50: 60 nM

## CC[C@H](C)[C@@H]1NC(=O)[C@@H]2CSSC[C@@H]3NC(=O)[C@H](C(C)C)NC(=O)[C@H](CC(C)C)NC(=O)[C@H](CC(N)=O)NC(=O)[C@@H]4CCCN4C(=O)[C@H](CCCNC(=N)N)NC(=O)[C@H](CSSC[C@H](NC(=O)[C@@H](N)CC(=O)O)C(=O)N[C@@H](CC(C)C)C(=O)NCC(=O)N[C@@H](Cc4cccnc4)C(=O)N[C@@H](CCSC)C(=O)N[C@@H](CCCNC(=N)N)C(=O)N[C@@H](CCCCN)C(=O)N2)NC(=O)[C@H](CSSC[C@@H](C(=O)N[C@@H](CCCCN)C(=O)N[C@@H](Cc2ccc(O)cc2)C(=O)N[C@H](C(=O)N[C@@H](Cc2ccccc2)C(N)=O)C(C)C)NC(=O)[C@H](Cc2c[nH]c4ccccc24)NC(=O)[C@H](CCCCN)NC(=O)[C@H](Cc2c[nH]cn2)NC(=O)[C@H]([C@@H](C)O)NC(=O)[C@H](CCCNC(=N)N)NC(=O)[C@H](CO)NC3=O)NC(=O)[C@H](CCCCN)NC(=O)[C@H](CC(=O)O)NC(=O)[C@H](CC(N)=O)NC(=O)[C@H](CC(=O)O)NC(=O)[C@@H]2CCCN2C1=O [compound 596]
hNav1.7; use-dependent block, hNav1.7
  IC50: 2600 nM
hNav1.5; use-dependent block, hNav1.5
  IC50: > 5000 nM
hNav1.3; use-dependent block, hNav1.3
  IC50: > 5000 nM

## CC[C@H](C)[C@@H]1NC(=O)[C@@H]2CSSC[C@@H]3NC(=O)[C@H](C(C)C)NC(=O)[C@H](CC(C)C)NC(=O)[C@H](CC(N)=O)NC(=O)[C@@H]4CCCN4C(=O)[C@H](CCCNC(=N)N)NC(=O)[C@H](CSSC[C@H](NC(=O)[C@@H](N)CC(=O)O)C(=O)N[C@@H](CC(C)C)C(=O)NCC(=O)N[C@@H](Cc4ccccc4)C(=O)N[C@@H](CCSC)C(=O)N[C@@H](CCCNC(=N)N)C(=O)N[C@@H](CCCCN)C(=O)N2)NC(=O)[C@H](CSSC[C@@H](C(=O)N[C@@H](CCCCN)C(=O)N[C@@H](Cc2ccc(O)cc2)C(=O)N[C@H](C(=O)N[C@@H](Cc2ccccc2)C(N)=O)C(C)C)NC(=O)[C@H](Cc2cn(C)c4ccccc24)NC(=O)[C@H](CCCCN)NC(=O)[C@H](Cc2c[nH]cn2)NC(=O)[C@H]([C@@H](C)O)NC(=O)[C@H](CCCNC(=N)N)NC(=O)[C@H](CO)NC3=O)NC(=O)[C@H](CCCCN)NC(=O)[C@H](CC(=O)O)NC(=O)[C@H](CC(N)=O)NC(=O)[C@H](CC(=O)O)NC(=O)[C@@H]2CCCN2C1=O [compound 361]
hNav1.7; Table 24, use, […]
  IC50: 3890 nM
hNav1.5; Table 24, use, […]
  IC50: 12200 nM
hNav1.3; Table 24, use, […]
  IC50: 4580 nM

## CC[C@H](C)[C@@H]1NC(=O)[C@@H]2CSSC[C@@H]3NC(=O)[C@H](C(C)C)NC(=O)[C@H](CC(C)C)NC(=O)[C@H](CC(N)=O)NC(=O)[C@@H]4CCCN4C(=O)[C@H](CCCNC(=N)N)NC(=O)[C@H](CSSC[C@H](NC(=O)[C@@H](N)CC(=O)O)C(=O)N[C@@H](CC(C)C)C(=O)NCC(=O)N[C@@H](Cc4ccccc4)C(=O)N[C@@H](CCSC)C(=O)N[C@@H](CCCNC(=N)N)C(=O)N[C@@H](CCCCN)C(=O)N2)NC(=O)[C@H](CSSC[C@@H](C(=O)N[C@@H](CCCCN)C(=O)N[C@@H](Cc2ccc(O)cc2)C(=O)N[C@H](C(=O)N[C@@H](Cc2ccccc2)C(N)=O)C(C)C)NC(=O)[C@H](Cc2c[nH]c4ccccc24)NC(=O)[C@H](CCCCN)NC(=O)[C@H](CCCNC(=NC)NC)NC(=O)[C@H]([C@@H](C)O)NC(=O)[C@H](CCCNC(=N)N)NC(=O)[C@H](CO)NC3=O)NC(=O)[C@H](CCCCN)NC(=O)[C@H](CC(=O)O)NC(=O)[C@H](CC(N)=O)NC(=O)[C@H](CC(=O)O)NC(=O)[C@@H]2CCCN2C1=O [compound 353] (H-DCLGFMRKCIPDNDKCCRPNLVCSRT[Arg(Me2s)]KWCKYVF-NH2; disulfide 2-17, 9-23, 16-30)
hNav1.7; Table 23, use, […]
  IC50: 2000 nM
hNav1.5; Table 23, use, […]
  IC50: 8320 nM
hNav1.3; Table 23, use, […]
  IC50: 2420 nM

## CC[C@H](C)[C@@H]1NC(=O)[C@@H]2CSSC[C@@H]3NC(=O)[C@H](C(C)C)NC(=O)[C@H](CC(C)C)NC(=O)[C@H](CC(N)=O)NC(=O)[C@H](CO)NC(=O)[C@H](CCCNC(=N)N)NC(=O)[C@H](CSSC[C@H](NC(=O)[C@@H](N)CC(=O)O)C(=O)N[C@@H](CC(C)C)C(=O)NCC(=O)N[C@@H](Cc4ccccc4)C(=O)N[C@@H](CCSC)C(=O)N[C@@H](CCCNC(=N)N)C(=O)N[C@@H](CCCCN)C(=O)N2)NC(=O)[C@H](CSSC[C@@H](C(=O)N[C@@H](CCCCN)C(=O)N[C@@H](Cc2ccc(O)cc2)C(=O)N[C@H](C(=O)N[C@@H](Cc2ccccc2)C(N)=O)C(C)C)NC(=O)[C@H](Cc2c[nH]c4ccccc24)NC(=O)[C@H](CCCCN)NC(=O)[C@H](Cc2c[nH]cn2)NC(=O)[C@H]([C@@H](C)O)NC(=O)[C@H](CCCNC(=N)N)NC(=O)[C@H](CO)NC3=O)NC(=O)[C@H](CCCCN)NC(=O)[C@H](CC(=O)O)NC(=O)[C@H](CC(N)=O)NC(=O)[C@H](CC(=O)O)NC(=O)[C@@H]2CCCN2C1=O [compound 181] (H-DCLGFMRKCIPDNDKCCRSNLVCSRTHKWCKYVF-NH2; disulfide 2-17, 9-23, 16-30)
hNav1.7; Use
  IC50: 88 nM
hNav1.5; Use
  IC50: 11400 nM
hNav1.3; Use
  IC50: 31 nM

## CC(C)C[C@@H]1NC(=O)[C@@H](NC(=O)[C@@H](N)CC(=O)O)CSSC[C@@H]2NC(=O)[C@@H]3CSSC[C@@H](C(=O)N[C@@H](CCCCN)C(=O)N[C@@H](Cc4ccc(O)cc4)C(=O)N[C@H](C(=O)N[C@@H](Cc4ccccc4)C(N)=O)C(C)C)NC(=O)[C@H](Cc4c[nH]c5ccccc45)NC(=O)[C@H](CCCCN)NC(=O)[C@H](Cc4c[nH]cn4)NC(=O)[C@H]([C@@H](C)O)NC(=O)[C@H](CCCNC(=N)N)NC(=O)[C@H](CO)NC(=O)[C@H](CSSC[C@H](NC(=O)[C@H](CCCCN)NC(=O)[C@H](CCCNC(=N)N)NC(=O)[C@H](Cc4ccccc4)NC(=O)[C@H](C)NC(=O)CNC1=O)C(=O)N[C@@H](CC(=O)O)C(=O)N1CCC[C@H]1C(=O)N[C@@H](CC(=O)O)C(=O)N[C@@H](CC(N)=O)C(=O)N[C@@H](CC(=O)O)C(=O)N[C@@H](CCCCN)C(=O)N3)NC(=O)[C@H](C(C)C)NC(=O)[C@H](CC(C)C)NC(=O)[C@H](CC(N)=O)NC(=O)[C@@H]1CCCN1C(=O)[C@H](CCCNC(=N)N)NC2=O [compound 702] (H-DCLGAFRKCDPDNDKCCRPNLVCSRTHKWCKYVF-NH2; disulfide 2-17, 9-23, 16-30)
hNav1.7; use-dependent protocol, hNav1.7
  IC50: 720 nM
hNav1.5; use-dependent protocol, hNav1.5
  IC50: 43000 nM
hNav1.3; use-dependent protocol, hNav1.3
  IC50: 370 nM

## CC[C@H](C)[C@@H]1NC(=O)[C@@H]2CSSC[C@@H]3NC(=O)[C@H](C(C)C)NC(=O)[C@H](CC(C)C)NC(=O)[C@H](CC(N)=O)NC(=O)[C@@H]4CCCN4C(=O)[C@H](CCCNC(=N)N)NC(=O)[C@H](CSSC[C@H](NC(=O)[C@@H](N)CC(=O)O)C(=O)N[C@@H](CC(C)C)C(=O)NCC(=O)N[C@@H](Cc4ccccc4)C(=O)N[C@@H](CCSC)C(=O)N[C@@H](CCCNC(=N)N)C(=O)N[C@@H](CCCCN)C(=O)N2)NC(=O)[C@H](CSSC[C@@H](C(=O)N[C@@H](CCCCN)C(=O)N[C@@H](Cc2ccc(O)cc2)C(=O)N[C@H](C(=O)N[C@@H](Cc2ccccc2)C(N)=O)C(C)C)NC(=O)[C@H](Cc2c[nH]c4ccccc24)NC(=O)[C@H](CCCCN)NC(=O)[C@H](Cc2c[nH]cn2)NC(=O)[C@H]([C@@H](C)O)NC(=O)[C@H](CCCNC(=N)N)NC(=O)[C@H](CO)NC3=O)NC(=O)[C@H](CCC(N)=O)NC(=O)[C@H](CC(=O)O)NC(=O)[C@H](CC(N)=O)NC(=O)[C@H](CC(=O)O)NC(=O)[C@@H]2CCCN2C1=O [compound 92] (H-DCLGFMRKCIPDNDQCCRPNLVCSRTHKWCKYVF-NH2; disulfide 2-17, 9-23, 16-30)
hNav1.7; Use
  IC50: 130 nM
hNav1.5; Use
  IC50: 7600 nM
hNav1.3; Use
  IC50: 120 nM

From patent publication US9340590B2 (priority 2011, dated 2016)
